Assays:
rat aorta rings = test: Relaxation of rat aorta rings; conditions: rat thoracic aorta rings, phenylephrine-contracted to 80% of maximum response; cumulative addition; read-out: EC50 (concentration required to evoke a 50% relaxation of the tissue)
Procedure: The activity of the compounds as potassium channel openers can also be measured as relaxation of rat aortas rings according to the following procedure:
A section of rat thoracic aorta between the aortic arch and the diaphragm was dissected out and mounted as ring preparations as described by Taylor P. D. et al, Brit J. Pharmacol, 111, 42-48 (1994).
After a 45 min. equilibration period under a tension of 2 g, the preparations were contracted to achieve 80% of the maximum response using the required concentration of phenylephrine. When the phenylephrine response reached a plateau, potential vasodilatory agents were added cumulatively to the bath in small volumes using half log molar increments at 2 min intervals. Relaxation was expressed at the percentage of the contracted tension. The potency of a compound was expressed as the concentration required to evoke a 50% relaxation of the tissue.
Relaxation of rat aorta rings

RIN 5F cell line = test: 86Rb+ efflux from a β-cell line (Rb-efflux in rin 5F cells); format: cell-based; conditions: 1 h at room temperature, Ringer buffer pH 7.1, four parameter logistic curve, read-out: EC50, inhibition of Rb-efflux
Procedure: ^86 Rb^+ efflux from a β-cell line
The RIN 5F cell line was grown in RPMI 1640 with Glutamax I, supplemented with 10% fetal calf serum (from GibcoBRL, Scotland, UK) and maintained in an atmosphere of 5% CO2 /95% air at 37° C. The cells were detached with a Trypsin-EDTA solution (from GibcoBRL, Scotland, UK), resuspended in medium, added 1 mCi/ml ^86 Rb^+ and replated into microtiter plates (96 well cluster 3596, sterile, from Costar Corporation,Massachusetts, U.S.A.) at a density of 50000 cells/well in […], and grown 24 hours before use in assay.
The plates were washed 4 times with Ringer buffer (150 mM NaCl, 10 mM Hepes, 3.0 mM KCl, 1.0 mM CaCl2, 20 mM Sucrose, pH 7.1). Eighty μl Ringer buffer and 1 μl control- or test compound dissolved in DMSO was added. After incubation 1 h at room temperature with a lid, 50 μl of the supernatant was transferred to PicoPlates (Packard Instrument Company, Connecticut, U.S.A.) and 100 μl MicroScint40 (Packard Instrument Company, Connecticut, U.S.A.) added. The plates were counted in TopCount (Packard Instrument Company, Connecticut, U.S.A.) for 1 min/well at the ^32 P program. […]

EC50 (rat aorta rings)	EC50 (RIN 5F cell line)	Structure (SMILES)
1.2 µM	2.7 µM	CC(C)C(C)NC1=NS(=O)(=O)c2sc(Cl)cc2N1 (centres unmarked) [Compound 1, 6-Chloro-3-(1,2-dimethylpropyl)amino-4H-thieno[3,2-e]-1,2,4-thiadiazine 1,1-dioxide]
6.1 µM	5.9 µM	C[C@H](CO)NC1=NS(=O)(=O)c2sc(Cl)cc2N1 [Compound 16, (R)-6-Chloro-3-(2-hydroxy-1-methylethyl)amino-4H-thieno[3,2-e]-1,2,4-thiadiazine 1,1-dioxide]
15 µM		CCNC1=NS(=O)(=O)c2sc(Cl)cc2N1 [Compound 2, 6-Chloro-3-ethylamino-4H-thieno[3,2-e]-1,2,4-thiadiazine 1,1-dioxide]

— US5889002A, “Fused 1,2,4-thiadiazine and fused 1,4-thiazine derivatives, their preparation and use” (Novo Nordisk A/S, priority 1996, dated 1999)
